These results are taken from patent US20040071653A1, “Antimicrobial ternary surfactant blend comprising cationic, anionic, and bridging surfactants, and methods of preparing same” (Stepan Company, priority 2000, published 2004).

In series [1] the test system is Escherichia coli (ATCC 11229). In words: Minimum Inhibitory Concentration test, bacteriostatic responses. Type of series: cell-based. To be noted: for Bacteriostatic response E. coli: triplicate; for Minimum Inhibitory Concentration E. coli: lowest concentration completely inhibiting growth in all three replicates. How it is done: (§1) [table] [table] Add 0.1 ml of inoculum to each 20×150 mm test tube containing 9.0 ml of Nutrient or Sabouraud Dextrose Broth and 1 ml of a aqueous dilution of the test sample. Vortex tube to mix then incubate bacteria inoculated tubes at 36±1° C. for a minimum of 48±1 hour and fungi inoculated tubes at 28° C. for 7-10 days. Following incubation, observe tubes visually for the presence of growth (i.e. turbidity). Perform all testing in triplicate.

For series [2], the system named is Pseudomonas aeruginosa (ATCC 15442). The series is described as above. The format is cell-based. The settings on record: for Minimum Inhibitory Concentration P. aeruginosa: lowest concentration completely inhibiting growth in all three replicates; for Bacteriostatic response P. aeruginosa: triplicate. On the procedure: as §1
For series [3], the system named is Staphylococcus aureus (ATCC 6538). The series is described as above. The format is cell-based. To be noted: for Bacteriostatic response S. aureus: triplicate; for Minimum Inhibitory Concentration S. aureus: lowest concentration completely inhibiting growth in all three replicates. How it is done:
as §1

In series [4] the test system is Aspergillus niger (ATCC 16404). In words: Minimum Inhibitory Concentration test, fungistatic responses. Type of series: cell-based. To be noted: for Fungistatic response A. niger: triplicate; for Minimum Inhibitory Concentration A. niger: lowest concentration completely inhibiting growth in all three replicates. How it is done:
as §1

Series [5] has as its system Candida albicans (ATCC 10231). The series is described as above. The settings on record: for Fungistatic response C. albicans: triplicate; for Minimum Inhibitory Concentration C. albicans: lowest concentration completely inhibiting growth in all three replicates. Type of series: cell-based. On the procedure: as §1
A short description of series [6]: Surface tension measurement. The settings on record: 0.1% surfactant blend in water. The format is physicochemical. An excerpt:
(§2) In the following examples, all amounts are stated in percent by weight of active material unless indicated otherwise. Surface tension measurements, Draves wetting measurements, and Ross Miles foaming initial and final measurements all were taken at 0.1% concentration of the surfactant blend in water.

Series [7] is described as follows: Draves wetting measurement. To be noted: 0.1% in water. Type of series: physicochemical.
Excerpt: as §2

A short description of series [8]: Ross Miles foaming, initial and final. The format is physicochemical. To be noted: 0.1% in water.
Excerpt: as §2

Series [9] relates to Aspergillus niger (ATCC 6275). In words: Time-Kill. Type of series: cell-based. To be noted: 100 ppm active. On the procedure:
(§3) Formulation 11-1 was prepared as described above and evaluated at two different concentrations against various microorganisms to determine the time required to kill certain levels of the microorganisms. Control formulation 11-2 was also tested in this assay at the same concentrations.
(§4) Preparation: Transfer each organism from stock slant to sterile Nutrient Broth (NB) tube. Incubate NB tubes at 36±1° C. After 24 hours incubation, subculture each broth culture to fresh tube of sterile NB. Repeat subculturing procedure at 24 hour intervals. Use cultures for testing after at least three consecutive 24 hour subculturings.
(§5) 2. Dispense 4.9 gram aliquots of each sample* into sterile medication tubes. Use one tube per organism. (*log10 reductions can be calculated by subtracting the log10 of the average inoculum count from the log10 of the test substance count after 30 seconds, 1 minute or 5 minutes contact)
(§6) 3. Centrifuge 18-24 hour broth culture of each test organism. Decant supernatant and re-suspend in equal volume of phosphate buffer. Re-centrifuge and re-suspend in phosphate buffer. Prepare 1:10 dilution of each culture suspension by adding 2 ml of culture to 18 ml of phosphate buffer. Mix by vortexing. Use this 1:10 dilution as the test inoculum.
(§7) 4. Perform initial plate count of the test inoculum by adding 0.1 ml of the inoculum to 4.9 grams of sterile distilled water. Vortex to mix, then remove 1 ml of solution and dilute in D/E Broth to 1:100,000. Plate 1:1,000, 1:10,000, and 1:100,000 dilutions in Microbial Content Agar (Difco).
(§8) 5. Begin testing of substances by adding 0.1 ml of test inoculum to sample tube. Vortex to mix. After 30 seconds, remove 1 ml of sample and add to 9 mls of DE broth, rinse pipette 5 times with sample and vortex. Remove additional 1 ml sample after 1 and 5 minutes contact and add to 9 mls of D/E Broth. Dilute each tube to 1:10,000 in D/E Broth and plate 1:1,000, 1:10,000, and 1:100,000 dilutions in Microbial Content Agar.
(§9) 7. After completion of step 6, perform final plate count of inoculum suspension by adding 0.1 ml of the suspension to 4.9 grams of sterile distilled water. Vortex to mix then remove 1 ml of solution and dilute in D/E Broth to 1:100,000. Plate 1:1,000, 1:10,000, and 1:100,000 dilutions in Microbial Content Agar (Difco).
(§10) 8. Incubate plates at 36±1° C. for 48 hours.
(§11) 9. Record all test results and calculate percent kills* after 30 seconds, 1 minute, and 5 minutes contact as follows: (*log10 reductions can be calculated by subtracting the log10 of the average inoculum count from the log10 of the test substance count after 30 seconds, 1 minute or 5 minutes contact) [formula]
(§12) X=Average of initial and final inoculum control counts, org/ml (Note: The difference between initial and final inoculum counts must be≦1 log for a valid study)
(§13) Y=Test substance bacterial count as org/ml after 30 seconds, 1 minute, or 5 minutes contact

Series [10] concerns Candida albicans (ATCC 10231). In words: Time-Kill. The format is cell-based. The settings on record: 100 ppm active. On the procedure: as §3, §4, §5, §6, §7, §8, §9, §10, §11, §12, §13
Series [11] relates to Escherichia coli (ATCC 11229). In words: Time-Kill. The format is cell-based. The settings on record: 100 ppm active. On the procedure:
as §3, §4, §5, §6, §7, §8, §9, §10, §11, §12, §13

Series [12] deals with Staphylococcus aureus (ATCC 6538). In words: Time-Kill. The format is cell-based. To be noted: 100 ppm active. How it is done: as §3, §4, §5, §6, §7, §8, §9, §10, §11, §12, §13
The next series deals with Pa (ATCC 9027). In words: Time-Kill. Type of series: cell-based, Pseudomonas aeruginosa. The settings on record: 50 ppm active. How it is done: as §3, §4, §5, §6, §7, §8, §9, §10, §11, §12, §13
The test system of series [13] is Psudomonas aeruginosa (ATCC 15442). In words: Time-Kill. Type of series: cell-based, Pseudomonas aeruginosa. The settings on record: 100 ppm active. How it is done:
as §3, §4, §5, §6, §7, §8, §9, §10, §11, §12, §13

With `CCCCCCCCCCCC[N+](C)(C)[O-]` [AMMONYX-LO, Lauramine oxide], in [1] (1000 ppm active), the “Bacteriostatic response E. coli” value turned out to be 000. The “Minimum Inhibitory Concentration E. coli” value in series [1] is listed as 1000 ppm, active. The “Minimum Inhibitory Concentration P. aeruginosa” value in series [2] was >1000 ppm, active. The “Bacteriostatic response S. aureus” value in series [3] (100 ppm active) and in series [3] (1000 ppm active) was 000 throughout. In addition, in series [3], the “Minimum Inhibitory Concentration S. aureus” value is listed as 100 ppm, active. Also, the “Fungistatic response A. niger” value in series [4] (100 ppm active) and in [4] (1000 ppm active) was 000 in each case. Further, the “Minimum Inhibitory Concentration A. niger” value in series [4] is reported as 100 ppm, active. The “Fungistatic response C. albicans” value in [5] (100 ppm active) and in [5] (1000 ppm active) was 000 in each case. Further, the “Minimum Inhibitory Concentration C. albicans” value in series [5] is reported as 100 ppm, active.
For the compound `CCCCCCCCS(=O)(=O)[O-].[Na+]` [BIO-TERGE PAS-8S, Sodium 1-octane sulfonate], the “Minimum Inhibitory Concentration E. coli” value in series [1] is recorded as >1000 ppm, active. Moreover, the “Minimum Inhibitory Concentration P. aeruginosa” value in [2] was >1000 ppm, active. In [3], the “Minimum Inhibitory Concentration S. aureus” value was >1000 ppm, active. Further, the “Minimum Inhibitory Concentration A. niger” value in series [4] was >1000 ppm, active. Further, in [5], the “Minimum Inhibitory Concentration C. albicans” value is recorded as >1000 ppm, active.
`CCCCCCCCCC[N+](C)(C)C.[Cl-]` [QC10, Decyltrimethylammonium chloride]: the “Surface Tension” value in series [6] came to 39.28 mN/m. The Wetting in [7] is listed as 100 s. Also, in series [8], the “Foaming Final” value was 0/0 cm and the “Foaming Initial” value is on record as 0/0 cm.
As to Cocamidopropyl betaine [Amphosol ® CA], the “Surface Tension” value in [6] is given as 36.75 mN/m. Moreover, in series [7], the Wetting is listed as 100 s. Moreover, in series [8], the “Foaming Final” value turned out to be 12.9 cm and the “Foaming Initial” value is given as 13 cm.
For the compound “N-Alkyl dimethyl benzyl ammonium chloride [BTC 65NF]”, the “Bacteriostatic response E. coli” value in [1] (10 ppm active), in [1] (100 ppm active) and in [1] (1000 ppm active) was 000 throughout. For the same compound, the “Minimum Inhibitory Concentration E. coli” value in series [1] is given as 10 ppm, active. In addition, the “Bacteriostatic response P. aeruginosa” value in series [2] (100 ppm active) and in series [2] (1000 ppm active) was 000 throughout. Also, the “Minimum Inhibitory Concentration P. aeruginosa” value in series [2] is given as 100 ppm, active. The “Bacteriostatic response S. aureus” value in series [3] (1 ppm active), in series [3] (10 ppm active), in series [3] (100 ppm active) and in [3] (1000 ppm active) was 000 each time. Also, the “Minimum Inhibitory Concentration S. aureus” value in series [3] is <1 ppm, active. For the same compound, the “Fungistatic response A. niger” value in [4] (10 ppm active), in series [4] (100 ppm active) and in [4] (1000 ppm active) was 000 each time. For the same compound, the “Minimum Inhibitory Concentration A. niger” value in [4] was 10 ppm, active. The “Fungistatic response C. albicans” value in series [5] (10 ppm active), in series [5] (100 ppm active) and in [5] (1000 ppm active) was 000 each time. The “Minimum Inhibitory Concentration C. albicans” value in [5] was 10 ppm, active. Besides, the figures for the “Percent Kill An” value in series [9] (5 Minutes contact), in series [9] (30 Seconds contact) and in series [9] (60 Seconds contact) were 92.3 % K, 0.0 % K and 22.5 % K, respectively. Moreover, the “Percent Kill Ca” value in series [10] (5 Minutes contact), in series [10] (30 Seconds contact) and in series [10] (60 Seconds contact) was over 99.7 % K throughout. Moreover, the “Percent Kill Ec” value in series [11] (5 Minutes contact), in [11] (30 Seconds contact) and in [11] (60 Seconds contact) was over 99.9 % K each time. The “Percent Kill Sa” value in series [12] (5 Minutes contact) is on record as over 99.8 % K; in series [12] (30 Seconds contact) it was 65.5 % K; in [12] (60 Seconds contact), 83.6 % K. In addition, the “Percent Kill Pa (ATCC 9027)” value in the series on Pa (ATCC 9027) (5 Minutes contact) was over 99.9 % K; in the series on Pa (ATCC 9027) (30 Seconds contact), 99.9 % K; in the series on Pa (ATCC 9027) (60 Seconds contact) it was over 99.9 % K. Also, the “Percent Kill Pa” value in series [13] (5 Minutes contact), in [13] (30 Seconds contact) and in series [13] (60 Seconds contact) was 99.9 % K in each case.
